{"source": "patent US20210253628A1", "about": "“COMPOUNDS, COMPOSITIONS, AND METHODS FOR TREATMENT OF ANDROGEN-MEDIATED DISEASE” (The Regents of the University of California, priority 2018, published 2021)", "key": {"CWR22Rv1": {"test_system": "CWR22Rv1", "experiment": "CWR22Rv1 cell number with Nic-S with or without enzalutamide or abiraterone acetate", "format": "cell-based"}, "CWR22-rv1 tumors": {"test_system": "CWR22-rv1 tumors", "experiment": "CWR22-rv1 tumors in mice, combination treatment with Nic-S and enzalutamide"}, "Wnt5A": {"test_system": "Wnt5A", "experiment": "Wnt5A expression by Western blot in C4-2B MDVR cells", "format": "cell-based", "conditions": "C4-2B MDVR cell lysates, different concentrations"}, "[1]": {"conditions": "cited from earlier work"}, "[2]": {"conditions": "in vivo; cited from earlier work"}, "[3]": {"test_system": "MCF-7, MDA-MB-468 and MDA-MB-231 cells", "experiment": "Breast cancer cell growth (cell numbers counted)", "format": "cell-based", "conditions": "different doses, 48 hrs"}, "VCaP tumors": {"test_system": "VCaP tumors", "experiment": "Castration relapsed VCaP xenograft tumor model", "conditions": "for Ki67 expression in relapsed VCaP tumors, single agent / tumor growth, single agent (combination study): enzalutamide 25 mg/Kg p.o. or Si-1 25 mg/Kg i.p.", "description": "Tumor volumes were determined twice weekly.\nVCaP tumors were allowed to develop in intact SCID mice and the animals were castrated after tumors reached 80-100 mm^3 of size. […] Tumor proliferation and AR expression by IHC was also examined.\nThe VCaP tumor model was then used to validate the efficacy of combination therapy."}, "AR [4]": {"test_system": "AR", "experiment": "AR expression by western blot in VCaP cells", "conditions": "3 days; for AR expression: western blot, 25 μM Si-1 or Si-2 or 20 μM enzalutamide alone", "method": "(§1) The sensitivity of prostate cancer cells to STS inhibitors was tested using cell growth assays and clonogenic assays. Quantitative reverse transcription-PCR, and Western blotting were performed to detect expression levels of STS and AR. […] Steroid profile including DHEA and androgens was analyzed by Liquid Chromatography-Mass Spectrometry (LC-MS). STS activity was determined by 4-Methylumbelliferyl sulfate assay through a fluorescence microtiter plate reader. PSA secretion was determined by ELISA and PSA-luciferase activity was measured by reporter assay.\n(§2) The AR expression was also determined by western blot."}, "AR [5]": {"test_system": "AR", "experiment": "PSA-luciferase reporter assay (AR transcriptional activity) in VCaP cells", "format": "cell-based", "method": "as §1, §2"}, "[6]": {"test_system": "C4-2B, LNCaP, DU145, PC3, CWR22rv1 and VCaP cells", "experiment": "Prostate cancer cell growth assay (cell numbers counted)"}, "VCaP cells": {"test_system": "VCaP cells", "experiment": "VCaP cell growth with or without enzalutamide", "conditions": "3 days; for VCaP cell growth, single agent: 10 μM or 25 μM Si-1 or Si-2, or 20 μM enzalutamide"}, "STS": {"target": "T1, STS (Homo sapiens, UniProt P08842)", "T1 construct": "A VCaP tumor model that expresses endogenous STS was employed; endogenous in cells; host or cells: VCaP prostate cancer cells", "T1 sequence (P08842 22-583)": "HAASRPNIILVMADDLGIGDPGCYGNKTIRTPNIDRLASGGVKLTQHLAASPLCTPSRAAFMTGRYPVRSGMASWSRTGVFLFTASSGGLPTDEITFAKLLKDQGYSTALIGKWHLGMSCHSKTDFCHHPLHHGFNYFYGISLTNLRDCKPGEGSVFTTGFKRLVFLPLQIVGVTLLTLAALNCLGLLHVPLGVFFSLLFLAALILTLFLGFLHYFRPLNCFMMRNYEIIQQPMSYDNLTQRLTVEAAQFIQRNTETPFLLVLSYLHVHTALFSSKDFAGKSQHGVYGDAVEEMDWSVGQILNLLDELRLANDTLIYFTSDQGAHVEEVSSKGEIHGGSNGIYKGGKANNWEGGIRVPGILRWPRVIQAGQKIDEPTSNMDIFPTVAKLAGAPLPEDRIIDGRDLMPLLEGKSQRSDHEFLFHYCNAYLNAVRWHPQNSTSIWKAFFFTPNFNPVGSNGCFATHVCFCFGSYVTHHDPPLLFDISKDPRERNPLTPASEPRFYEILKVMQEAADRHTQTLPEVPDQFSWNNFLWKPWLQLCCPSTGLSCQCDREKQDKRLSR", "experiment": "STS enzymatic activity in VCaP cells (4-Methylumbelliferyl sulfate microtiter plate cellular assay, fluorescence readout)", "format": "cell-based", "description": "VCaP cells were treated with 5 μM of different STSi, and STS activity was measured by microtiter plate cellular assay using fluorescence readout.\nTo evaluate the ability of STSi in inhibition of STS enzymatic activity, VCaP prostate cancer cells were treated with two synthesized STSi and STS enzymatic activity was measured. The activity assay was carried as described by Wolff, et al. (Anal Biochem, 2003. 318(2): p. 276-284). […] FIG. 3 shown the effects of other STSi on STS enzymatic activity in VCaP cells."}}, "note": "“Also recorded” adds a separate entry of the source.", "data": [{"smiles": "NS(=O)(=O)Oc1ccc(Cl)cc1C(=O)Nc1ccc([N+](=O)[O-])cc1Cl", "note": "[Niclosamide sulfamate, niclosamide sulfamate]", "values": [{"measurement": "enhancement of Enza/AA treatment", "setting": "CWR22Rv1; 0.5 μM Nic-S with 20 μM enzalutamide or 5 μM abiraterone acetate", "value": "synergistically enhances"}, {"measurement": "enhancement of enzalutamide treatment in vitro", "setting": "CWR22Rv1; 0.5 μM Nic-S with 20 μM enzalutamide, 3 and 5 days", "value": "synergistically enhance"}, {"measurement": "toxicity", "setting": "CWR22-rv1 tumors; body weight of mice bearing CWR22-rv1 tumors", "value": "without obvious toxicity"}, {"measurement": "enhancement of enzalutamide treatment in vivo", "setting": "CWR22-rv1 tumors; tumor volume, mice bearing CWR22-rv1 tumors", "value": "synergistically enhance"}, {"measurement": "Wnt5A expression", "setting": "Wnt5A", "value": "inhibit"}, {"measurement": "Wnt5A expression", "setting": "Wnt5A; listed as Nic-S", "value": "suppresses"}]}, {"smiles": "O=C(Nc1ccc([N+](=O)[O-])cc1Cl)c1cc(Cl)ccc1O", "note": "[Niclosamide, 2′,5-dichloro-4′-nitrosalicylanilide]", "values": [{"measurement": "solubility", "setting": "[1]", "value": "low"}, {"measurement": "oral bioavailability", "setting": "[2]", "value": "low"}]}, {"smiles": "CCN(C(=O)C1=CCC2C3CCc4cc(OS(N)(=O)=O)ccc4C3CCC12C)C(C)C", "note": "(stereo not drawn) [Si-1]", "values": [{"measurement": "breast cancer cell growth (cell numbers)", "setting": "[3]", "value": "inhibits cell growth in a dose dependent manner"}, {"measurement": "AR staining / tumor AR expression in VCaP tumors (IHC)", "setting": "VCaP tumors; 25 mg/kg/d i.p., 3 weeks", "value": "significantly suppressed"}, {"measurement": "Ki67 staining in VCaP tumors (IHC)", "setting": "VCaP tumors; 25 mg/kg/d i.p., 3 weeks", "value": "less"}, {"measurement": "tumor suppression compared with control", "setting": "VCaP tumors; 25 mg/kg/d i.p., 3 weeks", "value": "around 60%"}, {"measurement": "relapsed VCaP tumor growth / tumor progression", "setting": "VCaP tumors; 25 mg/kg/d i.p., castrated mice, 3 weeks", "value": "significantly suppressed; also recorded: significantly diminished"}, {"measurement": "decrease of serum PSA", "setting": "VCaP tumors; 3 weeks of treatment, control group 300 ng/mL PSA, ELISA", "value": 50, "unit": "%"}, {"measurement": "Ki67 expression in relapsed VCaP tumors, combination with enzalutamide", "setting": "VCaP tumors; IHC, Si-1 plus enzalutamide", "value": "further lowered"}, {"measurement": "Ki67 expression in relapsed VCaP tumors, single agent", "setting": "VCaP tumors; IHC", "value": "significantly decreased"}, {"measurement": "tumor growth, combined with enzalutamide", "setting": "VCaP tumors; Si-1 25 mg/Kg i.p. plus enzalutamide 25 mg/Kg p.o., 3 weeks", "value": "further suppressed"}, {"measurement": "tumor weight, single agent (combination study)", "setting": "VCaP tumors; Si-1 25 mg/Kg i.p., 3 weeks", "value": "significantly suppressed"}, {"measurement": "tumor weight", "setting": "VCaP tumors; after 3 weeks treatment, 25 mg/kg/d i.p.", "value": "significantly decreased"}, {"measurement": "mice body weight", "setting": "VCaP tumors; compared with control group, 25 mg/kg/d i.p.", "value": "not affected"}, {"measurement": "tumor growth, single agent (combination study)", "setting": "VCaP tumors; 3 weeks", "value": "significantly suppressed"}, {"measurement": "AR expression, combination with enzalutamide", "setting": "AR [4]; 25 μM Si-1 or Si-2 with 20 μM enzalutamide", "value": "completely suppressed"}, {"measurement": "AR expression", "setting": "AR [4]", "value": "significantly suppressed; also recorded: significantly decreased"}, {"measurement": "AR transcriptional activity", "setting": "AR [5]", "value": "significantly suppressed"}, {"measurement": "growth of C4-2B and VCaP cells", "setting": "[6]; C4-2B and VCaP cells", "value": "inhibited"}, {"measurement": "cell growth (cell numbers)", "setting": "[6]; increasing doses, 48 hrs, C4-2B, LNCaP, DU145, PC3, CWR22rv1 and VCaP cells", "value": "inhibited cell growth in a dose dependent manner"}, {"measurement": "VCaP cell growth, single agent", "setting": "VCaP cells", "value": "reduced"}, {"measurement": "VCaP cell numbers, combination with enzalutamide", "setting": "VCaP cells; Si-1 or Si-2 with 20 μM enzalutamide", "value": "further reduced"}, {"measurement": "STS activity", "setting": "STS", "value": "inhibited"}]}, {"smiles": "CNC(=O)c1ccc(N2C(=S)N(c3ccc(C#N)c(C(F)(F)F)c3)C(=O)C2(C)C)cc1F", "note": "[enzalutamide, reference compound]", "values": [{"measurement": "Ki67 expression in relapsed VCaP tumors, single agent", "setting": "VCaP tumors; IHC", "value": "did not affect"}, {"measurement": "tumor growth, single agent (combination study)", "setting": "VCaP tumors; 3 weeks", "value": "only slighted delayed"}, {"measurement": "AR expression", "setting": "AR [4]", "value": "decreased"}, {"measurement": "VCaP cell growth, single agent", "setting": "VCaP cells", "value": "slightly suppressed"}]}]}
